Experimental data reported in patent publication US20140303546A1, “LASER ASSISTED DELIVERY OF FUNCTIONAL CELLS, PEPTIDES AND NUCLEOTIDES” (priority 2011, published 2014).

Test system: Methicillin resistant Staphylococcus aureus (MRSA) biofilms
Assay: MRSA biofilm deep partial thickness wound model
Type: in vivo
Conditions: 24 hours after treatment; for reduction of MRSA counts in wounds: porcine wounds
Protocol: Rectangular wounds measuring (10 mm×7 mm×0.5 mm) were made on the paravertebral and thoracic area (porcine) with a specialized electrokeratome fitted with a 7 mm blade. Wounds were inoculated with 250 μL of a 10^6 CFU/ml suspension and covered individually with a polyurethane film dressing to allow for biofilm formation. After 24 hours, the dressings were removed and wounds were randomly assigned to one of the following treatment groups: 1) untreated control, 2) ErYag, 3) ErYag plus gentamycin or 3) gentamycin alone. After treatment the wounds were covered with a new polyurethane film dressing and after 24 hours wounds were recovered for MRSA counts using a well published scrub technique. Oxicillin resistance screening agar (ORSAB) was used to isolate MRSA from the wounds. All plates were incubated aerobically overnight (16-24 hours) at 37° C., after which the number of viable colonies will be counted.
Methicillin resistant Staphylococcus aureus (MRSA) biofilms were created using a deep partial thickness wound model (described above). Wounds were randomly assigned to one of the following treatment groups: 1) untreated control, 2) ErYag, 3) ErYag plus gentamycin or 3) gentamycin alone. Twenty four hours after treatment, MRSA was recovered. […] However in combination (Laser+gentamycin) were able to reduce MRSA counts by 1.72 Log CFU/ml.

[1] = in combination with ErYag laser

Substance: gentamycin
- reduction of MRSA counts in wounds (gentamycin alone): 0.6 Log CFU/ml
- reduction in MRSA [1]: 98.09%
- reduction of MRSA counts in wounds [1]: 1.72 Log CFU/ml
